From ChEMBL document CHEMBL1138277, “Synthesis and in vivo activity of MK2 and MK2 substrate-selective p38alpha(MAPK) inhibitors in Werner syndrome cells” (Bioorg Med Chem Lett, 2007)
Calls of active or inactive are those of the source. No cut-off for these calls is given here.

What was measured:
[1] = molecular target: T1, MAP kinase-activated protein kinase 2 (Homo sapiens, UniProt P49137); experiment: Inhibition of MK2 in human TERT immortalised HCA2 cells assessed as inhibition of anisomycin-induced HSP27 phosphorylation at 2.5 uM by ELISA; format: cell-based
WS [2] = experiment: Growth inhibition of WS cells above 200 nM; format: functional, cell-based; settings: Homo sapiens
Homo sapiens = organism: Homo sapiens; experiment: Inhibition of JNK
[3] = molecular target: T1, MAP kinase-activated protein kinase 2; experiment: Inhibition of MK2 in human TERT immortalised HCA2 cells assessed as maximal inhibition of anisomycin-induced HSP27 phosphorylation at 25 uM by ELISA; format: cell-based
Target sequence in this assay (P49137 whole entry, looked up): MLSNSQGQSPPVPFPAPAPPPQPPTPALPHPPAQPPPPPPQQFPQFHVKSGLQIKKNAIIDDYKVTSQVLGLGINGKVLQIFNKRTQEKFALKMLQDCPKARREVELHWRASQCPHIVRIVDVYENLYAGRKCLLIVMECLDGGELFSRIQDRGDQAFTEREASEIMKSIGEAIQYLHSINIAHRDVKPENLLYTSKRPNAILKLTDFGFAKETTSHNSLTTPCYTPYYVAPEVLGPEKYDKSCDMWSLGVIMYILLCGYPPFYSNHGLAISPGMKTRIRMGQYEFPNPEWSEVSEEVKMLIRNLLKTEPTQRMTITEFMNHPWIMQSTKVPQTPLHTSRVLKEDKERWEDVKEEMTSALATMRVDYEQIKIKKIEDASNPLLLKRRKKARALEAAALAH

[4] = molecular target: MAP kinase p38 (Homo sapiens) (UniProt O15264+Q15759+Q16539+P53778); experiment: Inhibition of p38 mediated MK2 activation in HCA2 cells at 25 uM; format: cell-based
[5] = molecular target: T1, MAP kinase-activated protein kinase 2; experiment: Inhibition of MK2 mediated HSP27 phosphorylation in immortalised WS cells assessed as reduction in F-actin stress fibres at 25 uM after 6 days; format: cell-based
Target sequence in this assay (P49137 whole entry, looked up): as above

[6] = molecular target: T1, MAP kinase-activated protein kinase 2; experiment: Inhibition of MK2 mediated HSP27 phosphorylation in immortalised WS cells assessed as reduction in F-actin stress fibres; format: cell-based
Target sequence in this assay (P49137 whole entry, looked up): as above

HCA2 = experiment: Growth inhibition of HCA2 cells above 2.5 uM; format: functional, cell-based; settings: Homo sapiens
[7] = molecular target: T1, MAP kinase-activated protein kinase 2; experiment: Inhibition of MK2 in human TERT immortalised HCA2 cells assessed as inhibition of anisomycin-induced HSP27 phosphorylation by ELISA; format: cell-based
Target sequence in this assay (P49137 whole entry): as the sequence (P49137 whole entry, looked up) above

WS [8] = experiment: Growth inhibition of WS cells above 2.5 uM; format: functional, cell-based; settings: Homo sapiens

SMILES | Ki app [1] [nM] | Activity (WS [2]) | Activity (Homo sapiens) | Activity [3] | Activity [4] | Activity [5] | Activity [6] | Activity (HCA2) | IC50 [7] [nM] | Activity [1] | Activity (WS [8])
O=C(CCCc1ccc(-c2ccccc2F)cc1)Nc1ccc(O)cc1 | 330 | Active | inactive |  |  |  |  |  |  |  | 
N#Cc1c(N)nc2c(c1N)Cc1cc(O)c(O)cc1O2 |  |  | inactive | Active | inactive | Active | Active | Active | 2500 | Active | Active
C[S+]([O-])c1ccc(-c2nc(-c3ccc(F)cc3)c(-c3ccncc3)[nH]2)cc1 (stereo not drawn) |  |  |  |  |  |  | Active |  |  |  | 
